We go through four molecules from paper PMC5619818, “Exploring Lactobacillus reuteri DSM20016 as a biocatalyst for transformation of longer chain 1,2-diols: Limits with microcompartment” (PLoS ONE, 2017).

The target in series [1] is T1, PduP (coenzyme-A acylating propionaldehyde dehydrogenase) (Limosilactobacillus reuteri, UniProt A5VMA0).
T1 construct: gene Lreu_1735
The experiment in a line: NADH formation at […] nm. Format: biochemical. The settings on record: NAD+ 5 mM, HS-CoA 0.43 mM, 50 mM potassium phosphate pH 7.0, 1 mM DTT, 30 °C.

Series [2] addresses T2, PduQ (1,3-propanediol oxidoreductase) (Limosilactobacillus reuteri, UniProt A5VM99).
T2 construct: gene Lreu_1734
T2 sequence (A5VM99 1-373): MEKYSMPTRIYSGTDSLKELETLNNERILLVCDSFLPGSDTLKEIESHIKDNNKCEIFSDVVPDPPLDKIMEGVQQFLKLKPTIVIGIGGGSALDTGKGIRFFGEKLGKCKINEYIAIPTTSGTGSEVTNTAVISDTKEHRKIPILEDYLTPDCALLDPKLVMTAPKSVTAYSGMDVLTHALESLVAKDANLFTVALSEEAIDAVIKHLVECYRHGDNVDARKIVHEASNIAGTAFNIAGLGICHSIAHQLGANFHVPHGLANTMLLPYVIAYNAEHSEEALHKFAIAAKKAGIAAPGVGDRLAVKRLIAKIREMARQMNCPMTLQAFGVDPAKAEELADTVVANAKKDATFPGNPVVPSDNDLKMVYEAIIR
As to the kind of experiment: NADH oxidation at […] nm. The note with it: NADH 0.2 mM, 50 mM potassium phosphate pH 7.0; aldehyde reduction. Format: biochemical.

Substrate in the series “purified protein”: O=CCCO
The experiment in a line: purified protein. Format: biochemical, Limosilactobacillus reuteri.

`CCCCCCCC=O` [Octanaldehyde]: the Km entry in series [1] and in series [2] was “Pentanaldehyde (C5)< Hexanaldehyde (C6)< Octanaldehyde (C8)” in each case.
As for `CCCCCCCCCC=O` [Decylaldehyde], the Km entry in series [1] and in series [2] was “Hexanaldehyde (C6)< Octanaldehyde (C8)< Decylaldehyde (C10)” throughout.

B1: PduP (coenzyme-A acylating propionaldehyde dehydrogenase) (Limosilactobacillus reuteri subsp. reuteri) (protein)
chain: MQINDIESAVRKILAEELDNASSSSANVAATTDNGHRGIFTNVNDAIAAAKAAQEIYRDKPIAVRQQVIDAIKEGFRPYIEKMAKDIKEETGMGTVEAKIAKLNNALYNTPGPEILEPVVENGDGGMVMYERLPYGVIGAVGPSTNPSETVIANAIMMLAGGNTLYFGAHPGAKNVTRWTIEKMNDFIADATGLHNLVVSIETPTIESVQQMMKHPDIAMLAVTGGPAVVHQAMTSGKKAVGAGPGNPPAMVDATADIDLAAHNIITSASFDNDILCTAEKEVVAESSIKDELIRKMQDEGAFVVNREQADKLADMCIQENGAPDRKFVGKDATYILDQANIPYTGHPVEIICELPKEHPLVMTEMLMPILPVVSCPTFDDVLKTAVEVEKGNHHTATIHSNNLKHINNAAHRMQCSIFVVNGPSYVGTGVADNGAHSGASALTIATPTGEGTCTARTFTRRVRLNSPQGFSVRNWY
As to B1, the Km (as a rule, the substrate concentration at which the rate is half of its maximum) in “purified protein” (NAD+ 5 mM, HS-CoA 0.43 mM, 50 mM potassium phosphate pH 7.0, 1 mM DTT, 30 °C) is 10.1 mM.

B2: PduQ (1,3-propanediol oxidoreductase) (Limosilactobacillus reuteri subsp. reuteri) (protein)
chain: MEKYSMPTRIYSGTDSLKELETLNNERILLVCDSFLPGSDTLKEIESHIKDNNKCEIFSDVVPDPPLDKIMEGVQQFLKLKPTIVIGIGGGSALDTGKGIRFFGEKLGKCKINEYIAIPTTSGTGSEVTNTAVISDTKEHRKIPILEDYLTPDCALLDPKLVMTAPKSVTAYSGMDVLTHALESLVAKDANLFTVALSEEAIDAVIKHLVECYRHGDNVDARKIVHEASNIAGTAFNIAGLGICHSIAHQLGANFHVPHGLANTMLLPYVIAYNAEHSEEALHKFAIAAKKAGIAAPGVGDRLAVKRLIAKIREMARQMNCPMTLQAFGVDPAKAEELADTVVANAKKDATFPGNPVVPSDNDLKMVYEAIIR
As for B2, the Km in “purified protein” (NADH 0.2 mM, 50 mM potassium phosphate pH 7.0, aldehyde reduction) stood at 28.7 mM.
